US20130172308A1, “ANTIMICROBIAL AGENTS” (John Grant COLLINS, priority 2011, published 2013)

Tests used:
[1] = tested on: Plasmodium falciparum strain D6; assay: [3H]-hypoxanthine growth inhibition assay; assay type: cell-based; conditions: Plasmodium falciparum, D6, 96 h
Experimental: (§1) The in vitro antimalarial activities of two of the dinuclear ruthenium(II) complexes and chloroquine were assessed by exposing P. falciparum strains to ten serially diluted two-fold concentrations of each compound. Parasite growth was measured by uptake of tritiated [^3H]-hypoxanthine into newly synthesised parasitic DNA.
(§2) The [^3H]-hypoxanthine growth inhibition assay (Desjardins et al., 1979 Antimicrobial Agents Chemother 16: 710-718) was used to evaluate the in vitro antimalarial activity of the compounds. Briefly, synchronised parasite cultures (>90% rings, 6 to 8 h post invasion) in [^3H]-RPMI-LPLF complete medium with 0.5% parasitaemia and 2% haematocrit were exposed to the compounds at ten two-fold concentrations, ranging from 10,000 to 20 nM in 96-well microtitre plates. Chloroquine was used as a reference drug. Uninfected RBCs at 2% haematocrit were used as background controls. For the 96 h exposure period, the plates were incubated in the gas mixture at 37° C. for approximately 48 h, followed by the addition of 0.2 μCi of ^3H-hypoxanthine (GE Healthcare, Amersham) in [^3H]-RPMI-1640-LPLF to each well and a further 48 h of incubation and then frozen at −20° C. Plates were thawed and harvested using Tomtech Harvester 96 Mach III and radioactive counts were obtained using Wallac TriLux 1450 Microbeta Liquid Scintillation Counter (Perkin Elmer, USA). All assays were performed in triplicate for each strain and at least on two separate occasions.
(§3) Tritiated hypoxanthine uptake data were analysed in Graphpad Prism V5.0 software (GraphPad Software Inc. USA). The concentrations of the dinuclear ruthenium(II) complexes and chloroquine were transformed into logarithmic values. After subtracting the background values, the data from drug-treated wells were normalised against drug-free control wells. Non-linear regression analysis was carried out of the compound's concentration versus parasitic hypoxanthine incorporation. The in vitro antimalarial activity of the compound is defined as inhibitory concentrations (IC50) and (IC90) that cause 50% and 90% inhibition of parasite growth as determined by measuring [^3H]-hypoxanthine incorporation.

[2] = tested on: Plasmodium falciparum strain W2; assay: [3H]-hypoxanthine growth inhibition assay; assay type: cell-based; conditions: Plasmodium falciparum, W2, 96 h
Experimental: as §1, §2, §3

S. typhimurium = assay: Further MIC assays, whole spectrum bacteria (CAMHB); assay type: cell-based; conditions: Table 3; Broth: CAMHB
Experimental: (§4) Further MIC assays were conducted against five different bacteria with Rubbn (n=7, 10, 12, 16), two rigid dinuclear species (bridges bpm and dppm) and Gentamicin—Whole spectrum bacteria MIC test results (Broth: CAMHB).

S. epidermidis = assay: as above; assay type: cell-based; conditions: Table 3; Broth: CAMHB
Experimental: as §4

E. coli ATCC 25922 = assay: MIC determination, broth micro-dilution (CAMHB); assay type: cell-based, Escherichia coli; conditions: Table 1; 37° C., 24 h
Experimental: (§5) Four strains of bacteria were chosen for the susceptibility tests: S. aureus ATCC 25923; MRSA (a wild clinical strain from the JCU culture collection); E. coli ATCC 25922 and P. aeruginosa ATCC 27853. The bacteria were grown on Mueller Hinton agar (OXOID, cat. No. CM0337) and suspended in growth medium cation-adjusted Mueller Hinton broth (CAMHB, OXOID, cat. No. CM0405). The MIC of each complex was determined in duplicate by standard micro-dilution methodology (British Society for Antimicrobial Chemotherapy Working Party, J. Antimicrob. Chemother., 1991, 27(suppl. D), 22) using gentamicin as the positive control. The ruthenium complexes were dissolved in CAMHB to a stock solution of […] and two-fold diluted in the broth in 96-well plates in a final volume of […] in each well. The same volume […] of bacterial suspension was added in each well making a concentration range of 0.25 mg ml^−1 to 128 mg ml^−1 for each complex. The plates were incubated at 37° C. for 24 h. The results are summarised in Table 1 below, using the following abbreviations: • Rubpm=ΔΔ-[{Ru(phen)2}2(μ-2,2′-bipyrimidine)]Cl4 • Rudppm=ΔΔ-[{Ru(phen)2}2(μ-4,6-bis(2-pyridyl)pyrimidine)]Cl4 • Rubb7trinuclear=Δ*Δ*-[{Ru*(phen)2}(μ-bb7){Ru(phen)}(μ-bb7){Ru*(phen)2}]Cl6 (only the two terminal metal centres are chiral, the two central metal centres are racemic) • Rubb7tetranuclear=Δ*Δ*-[{Ru*(phen)2}(μ-bb7) {Ru(phen)}(μ-bb7){Ru(phen)}(μ-bb7)-{Ru*(phen)2}]Cl8 (only the two terminal metal centres are chiral, the two central metal centres are racemic)
(§6) Further MIC assays and Minimum Bactericidal Concentration (MBC) assays were conducted against Gram-positive and Gram-negative bacterial strains using symmetric and non-symmetric, inert and labile complexes.

[3] = tested on: MRSA (a wild clinical strain from the JCU culture collection); assay: MIC determination, broth micro-dilution (CAMHB); assay type: cell-based, methicillin-resistant S. aureus; conditions: Table 1; 37° C., 24 h
Experimental: as §5, §6

A. baumanii = assay: Further MIC assays, whole spectrum bacteria (CAMHB); assay type: cell-based; design: unit not given here; conditions: Table 3; Broth: CAMHB
Experimental: as §4

human red blood cells = assay: Haemolytic assay; assay type: cell-based; conditions: for First indication (>2%) of haemolysis: 24 h incubation with red blood cells
Experimental: Freshly-drawn human blood was collected using lithium heparin vacuum blood collection tubes (Vacutainer, BD Australia). Erythrocytes were separated by centrifugation for 10 min at 1000 g at 10° C. and washed six times with phosphate-buffered saline (PBS) solution and diluted with PBS to a 10% solution. The concentration of erythrocytes was determined by haemocrit centrifugation (Biofuge Haemo, Heraeus instruments). A 1% Triton-X solution was prepared as the positive control. The complexes to be tested were dissolved in PBS to a stock solution of 2048 mg ml^−1 and two-fold diluted in PBS in round-bottomed 96-well plates in a final volume of […] in each well. […] red blood cell suspension samples were added to the wells making a concentration range from […] to 512 μg ml^−1 for Rubbn (n=10, 12, 16) and 2 μg ml^−1 to 1024 μg ml^−1 for Rubb7, and the plates with each complex were respectively incubated for 1, 2, 4, 8 and 24 h at 37° C. After incubation, the plates were centrifuged at 1000 g for 4 min. […] of supernatant in each well was transferred to a corresponding well in a new 96-well microtitre plate. The absorbance of each well was measured at 540 nm using a plate reader (Mutiskan Ascent, Thermo). Each complex was analysed in duplicate. The solutions of the metal complex at the same tested concentrations without erythrocytes were measured as a negative control.
The extent of haemolysis induced by incubation of the ruthenium complexes for 24 h with freshly-collected human red blood cells is shown in FIG. 1 and summarised in Table 5 below: […]

THP-1 cells = assay: Cytotoxicity assay (cell count with haemacytometer); assay type: cell-based, human
Experimental: Consequently, the toxicity (IC50) against THP-1 cells (a human acute monocytic leukemia cell line and a good model for nucleated eukaryotic cells) was examined (J. […] Human monocytic THP-1 cells were obtained from the American Type Culture Collection (ATCC, Rockville, Md., USA). […] Cells were seeded at a density of 5×10^5 per well in a sterile flat bottom 96-well plate, and incubated with the desired drug concentration in duplicate, to a total volume of […]. The concentration range for all the complexes was between […]. The plates containing each complex were respectively incubated for 24 and 48 h at 37° C. with 5% CO2. After incubation, the concentration of cells in each well was counted with a haemacytometer and IC50 values were calculated and the results are summarise in Table 6 below: […]

P. aeruginosa ATCC 27853 = assay: MIC determination, broth micro-dilution (CAMHB); assay type: cell-based, Pseudomonas aeruginosa; conditions: Table 1; 37° C., 24 h
Experimental: as §5, §6

S. aureus ATCC 25923 = assay: MIC determination, broth micro-dilution (CAMHB); assay type: cell-based, Staphylococcus aureus; conditions: Table 1; 37° C., 24 h
Experimental: as §5, §6

VRE = assay: Further MIC assays, whole spectrum bacteria (CAMHB); assay type: cell-based, vancomycin-resistant Enterococcus; conditions: Table 3; Broth: CAMHB
Experimental: as §4

E. faecalis = assay: as above; assay type: cell-based; design: unit not given beside the values; conditions: Table 3; Broth: CAMHB
Experimental: as §4

[4] = all the tested concentrations, over 24 h

Row | Compound | MIC S. typhimurium (S. typhimurium) | MIC S. epidermidis (S. epidermidis) | MIC E. coli (E. coli ATCC 25922) [µg/mL] | MIC MRSA [3] [µg/mL] | MIC A. baumanii (A. baumanii) | First indication (>2%) of haemolysis (human red blood cells) [µg/mL] | haemolytic activity (human red blood cells; [4]) | IC50 (THP-1 cells; 24 h) [µM] | IC50 THP-1 (THP-1 cells; 24 h) [µg/mL] | IC50 (THP-1 cells; 48 h) [µM] | IC50 THP-1 (THP-1 cells; 48 h) [µg/mL] | MIC P. aeruginosa (P. aeruginosa ATCC 27853) [µg/mL] | MIC S. aureus (S. aureus ATCC 25923) [µg/mL] | MIC VRE (VRE) | MIC E. faecalis (E. faecalis) | haemolytic activity (human red blood cells; at 10 μM, over 24 h) | other results
1 | CCN(CC)CCCC(C)Nc1ccnc2cc(Cl)ccc12 (centres unmarked) [chloroquine, reference compound] |  |  |  |  |  |  |  |  |  |  |  |  |  |  |  |  | IC50 ([1]; read-out: IC50 D6): 0.0098 µM; IC90 ([1]; read-out: IC90 D6): 0.0125 µM; IC50 ([2]; read-out: IC50 W2): 0.176 µM; IC90 ([2]; read-out: IC90 W2): 0.383 µM
2 | Cc1cc[n+]2c(c1)-c1cc(CCCCCCCc3cc[n+]4c(c3)-c3cc(C)cc[n+]3[Ru-4]435([n+]4cccc6ccc7ccc[n+]3c7c64)[n+]3cccc4ccc6ccc[n+]5c6c43)cc[n+]1[Ru-4]213([n+]2cccc4ccc5ccc[n+]1c5c42)[n+]1cccc2ccc4ccc[n+]3c4c21.F[P-](F)(F)(F)(F)F.F[P-](F)(F)(F)(F)F.F[P-](F)(F)(F)(F)F.F[P-](F)(F)(F)(F)F [ΔΔ-Rubb7, [{Ru(phen)2}2(μ-bb7)](PF6)4] | >128 | 1 | 16 | 32 | 64 | 64 | no significant haemolytic activity | 266 | 400 | 173 | 260 | 128 | 16 | 16 | 32 |  | 
3 | Cc1ccnc(-c2cc(CCCCCCCCCCc3ccnc(-c4cc(C)ccn4)c3)ccn2)c1.F[P-](F)(F)(F)(F)F.F[P-](F)(F)(F)(F)F.F[P-](F)(F)(F)(F)F.F[P-](F)(F)(F)(F)F.[Ru+2].[Ru+2].c1cnc2c(c1)ccc1cccnc12.c1cnc2c(c1)ccc1cccnc12.c1cnc2c(c1)ccc1cccnc12.c1cnc2c(c1)ccc1cccnc12 [ΔΔ-Rubb10, [{Ru(phen)2}2(μ-bb10)](PF6)4] | 32 | 0.5 | 4 | 4 | 64 | 32 | no significant haemolytic activity | 194 | 300 | 103 | 160 | 64 | 4 | 4 | 8 |  | 
4 | ΔΔ-[{Ru(phen)2}2(μ-bb12)](PF6)4 [ΔΔ-Rubb12] | 8 | 0.5 | 2 | 1 | 8 | 16 |  | 86 | 135 | 57 | 90 | 16 | 1 | 2 | 4 | essentially exhibited no haemolysis | 
5 | ΔΔ-[{Ru(phen)2}2(μ-bb16)](PF6)4 [ΔΔ-Rubb16] | 8 | 1 | 4 | 1 | 8 | 4 |  | 48 | 78 | 25 | 40 | 8 | 1 | 2 | 2 | noticeably increased | haemolytic activity (human red blood cells; at 10 μM, for 8 h): low
